Laboratory results: patent US7250505B1, “Isolation and expression of a disabled protein gene mDab1 and methods” (Fred Hutchinson Cancer Research Center, priority 1997, dated 2007)
No end group written: not given here.

How the values were obtained:
[1] = target: T1, mDab1 PTB (Mus musculus, UniProt P97318); assay: Competition of GST-mDab1 PTB binding to LUVs containing PtdIns4,5P2 by inositol phosphates
T1 construct: the region corresponding to the mDab1 PTB, residues 29 to 197; made in house; host or cells: Escherichia coli strain TG-1
T1 sequence (P97318 29-197): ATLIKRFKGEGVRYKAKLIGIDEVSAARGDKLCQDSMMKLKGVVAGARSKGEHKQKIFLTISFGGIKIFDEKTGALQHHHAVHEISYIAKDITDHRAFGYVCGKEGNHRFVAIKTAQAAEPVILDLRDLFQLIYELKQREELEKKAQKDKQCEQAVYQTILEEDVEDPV
Description: GST fusion proteins containing the Shc or mDab1 PTB domain were compared for their ability to bind LUVs that contained phosphotidylisositol 4,5 P2 (PtdIns4,5P2), phosphatidylserine (PtdSer) and phosphatidylethanolamine (PtdEth). Methods for the production of LUVs and assays for binding to Shc phosphotyrosine-binding domains can found in Ravichandran, et al., Mol. Cell. Biol. 17:5540-5549 (1997) which is incorporated herein by reference. After the fusion proteins and a GST control were incubated with the LUVs the reactions were centrifuged and the presence of the fusion proteins were detected by SDS PAGE and Western blotting with antibodies to GST as described above. GST-Shc PTB and GST-mDab1 PTB fusion proteins were found in the high speed pellet fraction in the presence of but not in the absence of LUVs. While the GST fusion protein control was found in the high speed supernatant in the presence of absence of the LUVs.
The specificity of mDab1 PTB binding to phospholipids was also determined. For these studies LUVs were prepared containing equal quantities of PtdSer, phosphatidylcholine (PtdCho) and Ptd Eth, and 0 or 5% by weight of PtdIns4P, PtdIns4,5P2, or PdtIns3,4,5P3. This corresponded to approximately 7.5 μM phosphoinositide in the outer leaflet of the lipid bilayer. Detection of binding to the LUVs was determined as described above.
mDab1 PTB binding to LUVs containing phosphoinositides in the presence of various phosphorylated isomers of inositol was also examined to determine whether the binding of mDab1 PTB to phosphoinositides was specific or was the result of a strong affinity for strongly anionic phospholipids. […] Binding was competed with D-Ins1,4,5P3, but not by L-Ins1, 4,5P3.

[2] = target: T2, mDab1 PTB domain (Mus musculus, UniProt P97318); assay: Binding of radioactively labeled GST-mDab1 PTB domain fusion protein to synthetic peptides in a grid array on cellulose; details: 15 to 17 residue peptides with NPXY motifs on cellulose sheet
T2 construct: the region corresponding to the mDab1 PTB, residues 29 to 197; made in house; host or cells: Escherichia coli strain TG-1
T2 sequence (P97318 29-197): T1 sequence (P97318 29-197)
Description: The ability of the mDab1 PTB domain to interact directly with synthetic peptides based on the sequences identified in the two-hybrid screen was tested to identify the optimal sequence for mDab1 PTB domain binding. […] The purified, radioactive fusion protein was then incubated with a sheet of cellulose paper onto which different 15 to 17 residue synthetic peptides had been synthesized in a grid array (Niebuhr, et al., EMBO J. 16:5433-5444 (1997), incorporated herein by reference). Each sheet contained up to 100 different peptide sequences. After incubation, the sheet was washed and exposed to film, and bound PTB domain fusion protein was quantified. […] The mDab1 PTB domain was tested against peptides containing NPXY motifs from APP, the APP relatives APLP1 and APLP2, LRP, the LRP-related LDL receptor, Ship, and known ligands for the Shc and IRS-1 PTB domains, namely the EGF receptor, HER3 receptor, NGF receptor (TrkA), and insulin receptor. The mDab1 PTB domain was also tested against peptide motifs with phosphotyrosine in place of the tyrosine of the NPXY sequence (i.e. NPXpY peptides). The amount of radioactivity associated with each peptide was quantified with a PhosphorImager (Molecular Dynamics), and depicted as a percentage of that which associated with the APP peptide.
To determine which residues in the APP sequence are involved in the interaction with the mDab1 PTB, an array of peptides based on the APP sequence with alanine substituted at each position in turn were synthesized. The ability of each peptide to bind to the PTB domain was compared to wild-type. […] Only the side chains of residues on the amino-terminal side of the NPXY motif appear to influence the strength of the interaction.
To determine the features of the APP peptide that were recognized by the mDab1 PTB domain, all nineteen amino acids, except cysteine, were substituted at several positions. In all cases the mDab1 PTB domain bound better to the wild-type APP sequence than to any altered sequence. Most substitutions of residues Gly-6, Tyr-5, Asn-3, Pro-2 and Tyr-0 inhibited PTB domain binding by greater than 80%. […] For example, the significant binding of the p150 Ship, LRP, and LDL receptor peptides implies that replacement of Tyr-5 with phenylalanine is permitted provided other changes are also made.

[3] = target: T1, mDab1 PTB; assay: GST-mDab1 PTB binding of tyrosine phosphorylated proteins from E13 mouse head lysates in the presence of phosphoamino acid competitors; details: competitor in binding buffer (50 mM)
Description: Lysates from 293T cells transfected with retroviral vectors encoding mDab555 alone; Src 527F alone; Src527F and mDab555 together; or Src527F and mDab1 98/200F, which is described in more detail below, were either bound to immobilized GST fusions proteins or were immunoprecipitated with anti-mDab1 or preimmune antibodies. Binding assays and analysis were carried out essentially as described for immunoprecipitations with 5 μg of GST fusion protein immobilized on glutathione agarose beads. Phenyl phosphate and phosphoserine were used at 50 mM for competition experiments. After washing, mDab1 bound to the immobilized SH2 domains was detected by immunoblotting. […] The Abl and Csk SH2 domains do form high affinity complexes with other tyrosine phosphorylated molecules however (Sabe et al., Proc. Natl. Acad. Sci. USA 91:3984-3988 (1994); Duyster et al., ibid. (1995)).
To examine whether the mDab1 PTB binds proteins that are tyrosine phosphorylated during neural development, a GST fusion protein containing the mDab1 PTB, a mutant mDab1 PTB in which Arg 56 was changed to Glu (mDab1 56E) or GST alone. was incubated with lysates from E13 mouse heads. Bound proteins were eluted, resolved and immunoblotted with anti-phosphotyrosine antibodies. The mDab1 PTB bound tyrosine phosphorylated proteins of 200, 120, 50-65 and 40 kDa.
To test whether the binding of proteins to the mDab1 PTB is phosphotyrosine dependent, binding experiments were done in the presence of the phosphotyrosine analog phenylphosphate. The assays was conducted as described above and phenylphosphate or phosphoserine were included in the binding buffer to investigate binding specificity. Proteins were eluted and analyzed as described above. […] However the binding of the 50-65 kDa proteins was not affected by either competitor.

Which “competition of GST-mDab1 PTB binding to LUVs containing PtdIns4,5P2” value ([1]; competitor at 100 μM) does the source give for `O=P(O)(O)O[C@@H]1[C@@H](O)[C@H](OP(=O)(O)O)[C@@H](OP(=O)(O)O)[C@H](O)[C@@H]1O` [L-Ins1, 4,5P3] here?
Its value is “not”.

For MFENPLY [SEQ ID NO:30], which “binding of mDab1 PTB domain to peptide” value [2] is on record?
The value was “better than the other”.

Which “binding of the 50-65 kDa proteins to mDab1 PTB in presence of competitor” value [3] does the source give for `O=P(O)(O)Oc1ccccc1` [phenylphosphate] here?
Its value is “not affected”.

And the “binding of the 120 and 40 kDa phosphotyrosyl proteins to mDab1 PTB in presence of competitor” value [3]?
Its value is “reduced significantly”.

Which results are given for `O=P(O)(O)O[C@@H]1[C@H](O)[C@H](O)[C@@H](OP(=O)(O)O)[C@H](OP(=O)(O)O)[C@H]1O` [D-Ins1,4,5P3]?
competition of GST-mDab1 PTB binding to LUVs containing PtdIns4,5P2 ([1]; competitor at 30 μM): weak competition; competition of GST-mDab1 PTB binding to LUVs containing PtdIns4,5P2 ([1]; competitor at 100 μM): competed

For `N[C@@H](COP(=O)(O)O)C(=O)O` [phosphoserine], which “binding of the 50-65 kDa proteins to mDab1 PTB in presence of competitor” value [3] is on record?
The value was “not affected”.

And the “binding of the 120 and 40 kDa phosphotyrosyl proteins to mDab1 PTB in presence of competitor” value [3]?
The value was “to a less extent”.

How did the “binding of mDab1 PTB domain to peptide” value [2] turn out when NSSNPEY [SEQ ID NO:34] was run?
The value was “failed to interact”.

Which “binding of mDab1 PTB domain to peptide” value [2] does the source give for NVGNPEY [SEQ ID NO:32] here?
The value was “failed to interact”.

For “NFTNPVY [SEQ ID NO:28, peptide with the more carboxy-terminal NPXY motif of LRP]”, which “binding of mDab1 PTB domain to peptide” value [2] is on record?
Its value is “bound”.

NFDNPVY [SEQ ID NO:29] was tested. Which “binding of mDab1 PTB domain to peptide” value [2] did it give?
The value was “bound”.

Which “binding of mDab1 PTB domain to peptide” value [2] does the source give for IIENPQY [SEQ ID NO:33] here?
The value was “failed to interact”.
